Paper PMC11642016 (International Journal of Molecular Sciences, 2024)
Several values for one entry are separate records, joined by “and”; a condition that tells them apart may be missing. Equal entries are not always repeated. Where two headings read alike, the source gives them in different places.

Key:
[1] = test system: PANC-1 cells; assay: Colony formation (clonogenic) assay; type: cell-based, human; conditions: 4 µM
[2] = test system: PANC-1 and Fadu cells; assay: CellTiter-Glo viability, statements covering both cancer cell lines; type: cell-based, human; conditions: 72 h dose–response
Procedure: The effects of the synthesized compounds on cell viability were measured using the CellTiter-Glo® luminescent cell viability assay (Promega, Madison, WI, USA), according to the manufacturer’s instructions. […] After seeding, cells were incubated for a further 48 h before treatment. Cells were treated with the compounds for 72 h. […] After treatment, the luminescence signal was recorded using a microplate reader (BioTek Synergy 2 Multi-Mode Reader, BioTek, Winooski, VT, USA).

[3] = CellTiter-Glo cell viability assay, HEK293T WT; conditions: human, HEK293T WT cells, HEK293T WT Cell viability (% of controll), 72 h, dose–response, individual replicates
Procedure: (§1) Primary fibroblast cultures were prepared from human skin biopsies and maintained in DMEM supplemented with 10% FBS, 1% penicillin-streptomycin, and 1% MEM Non-Essential Amino Acids Solution (Thermo Fisher Scientific). […] All cell lines were cultured in a humidified atmosphere at 37 °C and 5% CO2, passaged twice a week, and the experiments were performed on cells between passage 5 and 15. The cell lines were routinely screened for the absence of mycoplasma infection (DAPI staining).
(§2) The effects of the synthesized compounds on cell viability were measured using the CellTiter-Glo® luminescent cell viability assay (Promega, Madison, WI, USA), according to the manufacturer’s instructions. Briefly, cells were seeded onto a flat-bottomed, white 96-well plate (BRANDplates, cat. no.: 781965)), with the following densities: PANC-1: 750 cells/well, Fadu: 2000 cells/well, primary fibroblasts: 2000 cells/well, HEK293T WT: 1000 cells/well, HEK293T CLPP^−/−: 2500 cells/well. After seeding, cells were incubated for a further 48 h before treatment. Cells were treated with the compounds for 72 h. Three concentrations (25.0 µM; 8.3 µM; 2.8 µM) were applied during the initial cell viability screening, while for the determination of dose–response curves, 1.5-fold serially diluted compound concentrations were applied (range: 26 µM–0.7 µM). After treatment, the luminescence signal was recorded using a microplate reader (BioTek Synergy 2 Multi-Mode Reader, BioTek, Winooski, VT, USA).
(§3) Data analysis was performed using GraphPad Prism 9.5.0 software (GraphPad Software, San Diego, CA, USA). […] The dose–response curves were generated by four-parameter nonlinear regression, and the IC50 values were determined as the means ± SEM of the best-fit values of 3 independent measurements. The R^2 values were consistently above 0.93, indicating a strong fit of the model to the experimental data (Supplementary S.89). […] Dunnett’s post hoc test was applied to adjust for multiple comparisons, minimizing the likelihood of false positive results. Assumptions for ANOVA, including normality (assessed via QQ plots) and homogeneity of variance (tested using the Brown–Forsythe test), were verified. The following significance levels were applied: * p < 0.05, ** p < 0.01, *** p < 0.001, **** p < 0.0001. […] The tumor selectivity of the compounds was quantitatively characterized by the selectivity index (SI). This parameter was calculated as the ratio of the average best-fit IC50 value for primary fibroblasts and the best-fit IC50 value for the corresponding tumor cells (PANC-1 or Fadu).

[4] = test system: HEK293T WT cells; assay: CellTiter-Glo cell viability assay, HEK293T WT; conditions: for HEK293T WT Cell viability (% of controll): dose–response, individual replicates
Procedure: as §1, §2, §3

[5] = test system: Fadu cells; assay: CellTiter-Glo luminescent cell viability assay, Fadu
[6] = test system: PANC-1 cells; assay: CellTiter-Glo luminescent cell viability assay, PANC-1; conditions: 72 h, dose–response, individual replicates

In the case of CNCC#Cc1cccc(CN2C(=O)C3=C(CCN(Cc4ccc(-n5cc(-c6ccccc6)nn5)cc4)C3)N3CCN=C23)c1 [38b], the “viable cells / colonies after shorter exposure” value ([1]; 24 h treatment followed by 5 days post-incubation) is reported as “left only traces of viable cells”, the “viable cells / colonies after longer exposure” value ([1]; 72 h treatment followed by 3 days post-incubation) is reported as “no viable cells were discernible” and the “concentration range of almost complete eradication of PANC-1 and Fadu cells with little to no cytotoxic effect toward fibroblasts” value [2] is reported as 3000 to 4000 nM. It also gave a viability at 72 h, 0.4 µM ([3]; 0.4 μM) of 121%, a viability at 72 h, 0.6 µM ([3]; 0.6 μM) of 107% and a viability at 72 h, 1 µM ([3]; 1.0 μM) of 109%. The viability at 72 h, 1.6 µM ([3]; 1.6 μM) was 64%, the viability at 72 h, 4 µM ([3]; 4.0 μM) was 0% and the viability at 72 h, 6.4 µM ([3]; 6.4 μM) was 0%. The viability at 72 h, 16.25 µM ([3]; 16.25 μM) was 0%, the viability at 72 h, 26 µM ([3]; 26 μM) was 0% and the “HEK293T WT Cell viability (% of controll)” value ([4]; 0.4 μM, 72 h) was 116 % of controll and 117 % of controll and 121 % of controll. For the same compound, the “HEK293T WT Cell viability (% of controll)” value ([4]; 0.6 μM, 72 h) was 110 % of controll and 120 % of controll and 116 % of controll, the “HEK293T WT Cell viability (% of controll)” value ([4]; 1.0 μM, 72 h) was 110 % of controll and 102 % of controll and the “HEK293T WT Cell viability (% of controll)” value ([4]; 1.6 μM, 72 h) was 66 % of controll and 67 % of controll and 83 % of controll. For the same compound, the “HEK293T WT Cell viability (% of controll)” value ([4]; 2.5 μM, 72 h) was 6 % of controll and 15 % of controll and 12 % of controll (2×), the “HEK293T WT Cell viability (% of controll)” value ([4]; 4.0 μM, 72 h) was 0 % of controll and the “HEK293T WT Cell viability (% of controll)” value ([4]; 6.4 μM, 72 h) was 0 % of controll. For the same compound, the “HEK293T WT Cell viability (% of controll)” value ([4]; 16.25 μM, 72 h) was 0 % of controll, the “HEK293T WT Cell viability (% of controll)” value ([4]; 26 μM, 72 h) was 0 % of controll and the IC50 ([4]; Homo sapiens, HEK-293T, 72 h, read-out: IC50 (µM) HEK293T WT, 72 h treatment, ± SEM, best-fit values, n = 4) was 1.7 ± 0.02 µM. For the same compound, the IC50 ([4]; Homo sapiens, HEK-293T, read-out: HEK293T WT IC50 values, Mean, mean of independently fitted replicate IC50 values (Supplement S.6)) was 1.67 µM, the IC50 ([4]; Homo sapiens, HEK-293T, read-out: HEK293T WT IC50 values, individual replicates n1-n4, IC50 independently determined for each replicate measurement (Supplement S.6)) was 1.61 µM and the IC50 ([4]; read-out: HEK293T WT IC50 values, individual replicates n1-n4, IC50 independently determined for each replicate measurement (Supplement S.6)) was 1.66 µM and 1.63 µM and 1.79 µM. The “Fadu Cell viability (% of controll)” value ([5]; 0.7 μM, 72 h, dose–response, individual replicates) was 108 % of controll and 109 % of controll, the “Fadu Cell viability (% of controll)” value ([5]; 1 μM, 72 h, dose–response, individual replicates) was 109 % of controll and 105 % of controll and the “Fadu Cell viability (% of controll)” value ([5]; 1.5 μM, 72 h, dose–response, individual replicates) was 105 % of controll and 106 % of controll. For the same compound, the “Fadu Cell viability (% of controll)” value ([5]; 2.3 μM, 72 h, dose–response, individual replicates) was 99 % of controll and 98 % of controll, the “Fadu Cell viability (% of controll)” value ([5]; 3.4 μM, 72 h, dose–response, individual replicates) was 70 % of controll and 37 % of controll and 29 % of controll and the “Fadu Cell viability (% of controll)” value ([5]; 5.1 μM, 72 h, dose–response, individual replicates) was 10 % of controll and 1 % of controll and 2 % of controll. For the same compound, the “Fadu Cell viability (% of controll)” value ([5]; 7.7 μM, 72 h, dose–response, individual replicates) was 0 % of controll, the “Fadu Cell viability (% of controll)” value ([5]; 17.3 μM, 72 h, dose–response, individual replicates) was 0 % of controll and the “Fadu Cell viability (% of controll)” value ([5]; 26 μM, 72 h, dose–response, individual replicates) was 0 % of controll. It also gave a viability at 2.8 µM ([5]; Homo sapiens, FaDu, 72 h, read-out: Cell Viability (% of Control) 2.8 µM, Fadu, 2.8 µM, 72 h, second-set screening, mean ± SD, n = 2) of 91 ± 17%, a viability at 8.3 µM ([5]; Homo sapiens, FaDu, 72 h, read-out: Cell Viability (% of Control) 8.3 µM, Fadu, 8.3 µM, 72 h, second-set screening, mean ± SD, n = 2) of 0% and a viability at 25 µM ([5]; Homo sapiens, FaDu, 72 h, read-out: Cell Viability (% of Control) 25 µM, Fadu, 25 µM, 72 h, second-set screening, mean ± SD, n = 2) of 0%. The viability at 0.7 µM ([5]; Homo sapiens, FaDu, 72 h, read-out: Fadu Cell viability (% of controll), 0.7 μM, 72 h, dose–response, individual replicates) was 103%, the viability at 1 µM ([5]; Homo sapiens, FaDu, 72 h, read-out: Fadu Cell viability (% of controll), 1 μM, 72 h, dose–response, individual replicates) was 113% and the viability at 1.5 µM ([5]; Homo sapiens, FaDu, 72 h, read-out: Fadu Cell viability (% of controll), 1.5 μM, 72 h, dose–response, individual replicates) was 104%. For the same compound, the viability at 2.3 µM ([5]; Homo sapiens, FaDu, 72 h, read-out: Fadu Cell viability (% of controll), 2.3 μM, 72 h, dose–response, individual replicates) was 104%, the viability at 7.7 µM ([5]; Homo sapiens, FaDu, 72 h, read-out: Fadu Cell viability (% of controll), 7.7 μM, 72 h, dose–response, individual replicates) was 0% and the viability at 17.3 µM ([5]; Homo sapiens, FaDu, 72 h, read-out: Fadu Cell viability (% of controll), 17.3 μM, 72 h, dose–response, individual replicates) was 0%. The viability at 26 µM ([5]; Homo sapiens, FaDu, 72 h, read-out: Fadu Cell viability (% of controll), 26 μM, 72 h, dose–response, individual replicates) was 0%, the IC50 ([5]; Homo sapiens, FaDu, 72 h, read-out: IC50 Value ± SEM Fadu, 72 h treatment, best-fit values, n = 3) was 3300 ± 70 nM and the “Selectivity Index (SI) Fibroblast/Fadu” value ([5]; ratio of mean best-fit IC50 for primary fibroblasts and best-fit IC50 for Fadu) was 1.3. For the same compound, the “PANC-1 Cell viability (% of controll)” value ([6]; 0.7 μM) was 103 % of controll and the “PANC-1 Cell viability (% of controll)” value ([6]; 1 μM) was 108 % of controll.
